Broadly, the IC50 is the point on the concentration scale where inhibition reaches its midpoint. As a reminder, the EC50 is the concentration needed to bring the measured effect to its halfway point.

Data set [1] is described as follows: in vitro. As to conditions: human. The procedure: (§1) After a three day-incubation for HepG2, or 5 days for human PBM cells, cell viability and mitochondrial activity were measured in a colorimetric assay using the MTS- or MTT dye method (Promega, Madison, Wis.).
Data set [2] can be described thus: in vitro. To be noted: human. In kind it is cell-based, human. The procedure:
(§2) The compounds were evaluated for their potential toxic effects on uninfected PHA-stimulated human PBM cells, in CEM (T-lymphoblastoid cell line obtained from American Type Culture Collection, Rockville, Md.) and Vero (African green monkey kidney) cells. PBM cells were obtained from whole blood of healthy seronegative donors (HIV-1 and hepatitis B virus) by single-step Ficoll-Hypaque discontinous gradient centrifugation. […] All of the cells were plated in 96-well cell culture plates containing ten-fold serial dilutions of the test drug. […] At the end of incubation, MTT tetrazolium dye solution (Cell titer 96®, Promega, Madison, Wis.) was added to each well and incubated overnight. The reaction was stopped with stop solubilization solution (Promega, Madison, Wis.). The plates were incubated for 5 hours to ensure that the formazan crystals were dissolved. The plates were read at a wavelength of 570 nm using an ELISA plate reader (Bio-tek instruments, Inc., Winooski, Vt., Model # EL 312e). […] Bookmark not defined.

Data set [3] can be described thus: in vitro. In kind it is cell-based, African green monkey. As to conditions: African green monkey, Cytotoxicity (IC50) Vero. The procedure:
(§3) The compounds were evaluated for their potential toxic effects on uninfected PHA-stimulated human PBM cells, in CEM (T-lymphoblastoid cell line obtained from American Type Culture Collection, Rockville, Md.) and Vero (African green monkey kidney) cells. PBM cells were obtained from whole blood of healthy seronegative donors (HIV-1 and hepatitis B virus) by single-step Ficoll-Hypaque discontinous gradient centrifugation. Log phase Vero, CEM and PHA-stimulated human PBM cells were seeded at a density of 5×10^3, 2.5×10^3 and 5×10^4 cells/well respectively. All of the cells were plated in 96-well cell culture plates containing ten-fold serial dilutions of the test drug. The cultures were incubated for 3, 4 and 5 days for Vero, CEM, and PBM cells, respectively in a humidified 5% CO2-air at 37° C. At the end of incubation, MTT tetrazolium dye solution (Cell titer 96®, Promega, Madison, Wis.) was added to each well and incubated overnight. The reaction was stopped with stop solubilization solution (Promega, Madison, Wis.). The plates were incubated for 5 hours to ensure that the formazan crystals were dissolved. The plates were read at a wavelength of 570 nm using an ELISA plate reader (Bio-tek instruments, Inc., Winooski, Vt., Model # EL 312e). […] Bookmark not defined.

A short description of data set [4]: in vitro. To be noted: human. The procedure: as §1
The source holds these as a separate data set.

Data set [5] concerns β-actin gene. The data set is classed as cell-based, human. As to conditions: human, 7 days, 10 μM. The procedure:
Low passage number HepG2 cells, obtained from American Tissue Culture Collection (ATCC, Manassas, Va.) were seeded at 5,000 cells/well in collagen-coated 96-well plates. Test compounds were added to the media to obtain a final concentration of 10 μM. On culture day 7, cellular nucleic acids were prepared by using commercially available columns (RNeasy 96 kit, Qiagen). […] The mitochondrial cytochrome C oxidase subunit II (COXII) gene and the β-actin or rRNA gene were amplified from 5 μL with a multiplex Q-PCR protocol using the suitable primers and probes for both target and reference (designed using the Primer Express software, Applied Biosystems); • for COXII. • sense primer 5′-[…]-3′ (Sequence 7); • probe 5′-TET-[…]-TAMRA-3′ (Sequence 8); and • antisense probe 5′-[…]-3′ (Sequence 9); • for exon 3 of β-actin (GenBank E01094): • sense primer 5′-[…]-3′ (Sequence 10); • probe 5′-6FAM-[…]-TAMRA-3′ (Sequnece 11); and • antisense probe 5′-[…]-3′ (Sequence 12).
The rRNA gene primers and probes were purchased from Applied Biosystems. Standard curves using 1-log diluted total HepG2 DNA were linear over more than 5 logs. In addition, efficiencies of target (COXII DNA) and reference (β-actin DNA or rRNA) amplification were approximately equal, because the slope of the ΔCt line (Ct β-actin minus Ct mitochondrial) was less than 0.1 (not shown). Since equal amplification efficiencies were obtained for both genes, the comparative cycle threshold (Ct) method was used to investigate potential inhibition of the mitochondrial DNA polymerase γ. The comparative Ct method uses arithmetic formulas in which the amount of target (COXII gene) is normalized to an endogenous reference (β-actin gene or rRNA gene) and is relative to a calibrator (no drug control at day 7). The arithmetic formula for this approach is given by 2-ΔΔCt (User bulletin # 2, Applied Biosystems).
In order to study the consequences of possible inhibitory effects of these compounds on host DNA polymerases, nuclear and rnitochondrial DNA levels were quantified and compared to no-treatment controls. Cells were incubated for 7 days with 10 μM of each compound, followed by total nucleic acid extractions and multiplex Q-PCR of the rRNA gene and the mitochondrial COXII gene. Nucleic acids from cells exposed to the control compounds were also amplified in multiplex for mitDNA and the β-actin gene. The results are presented in Table 4 using the comparative Ct method.

Data set [6] has as its system HBV. Kind of data set: HBV Q-PCR in the HepG2.2.15 cell system. The data set is classed as cell-based, hepatitis B virus. To be noted: 10 μM, HepG2.2.15 system.
For data set [7], the system named is human PBM cells. Put plainly: Toxicity assay (MTS/MTT dye), human PBM cells. As to conditions: read-out: Cytotoxicity PBM IC50; human PBM cells, 5 days incubation. The procedure: as §1
The subject of data set [8] is human PBM cells. Kind of data set: in vitro. The data set is classed as cell-based. The procedure: as §2
In data set [9] the test system is Vero (African green monkey kidney) cells. Kind of data set: in vitro. In kind it is cell-based. The procedure: as §3
Data set [10] concerns HIV-1LAI. As to conditions: human PBM cells; reported in Org. Lett. 2002; read-out: anti-HIV activity EC50; cited from earlier work.

As to `Cc1cn([C@H]2C[C@H](N=[N+]=[N-])[C@@H](CO)O2)c(=O)[nH]c1=O` [AZT, 3′-azido-3′-deoxythymidine, reference compound], the IC50 at 5 days in [1] and in data set [2] was greater than 100 µM throughout. In addition, the IC50 at 3 days in [3] was 28 µM; in data set [4], greater than 100 µM. Further, the “Average ΔCt ± SD β-actin DNA” value in [5] is recorded as 0.10 ± 0.38.

In the case of `Nc1ccn([C@@H]2CS[C@H](CO)O2)c(=O)n1` [Compound 3TC, (−)-β-2′,3′-dideoxy-3′-thiacytidine, reference compound], in data set [1], the IC50 at 5 days was greater than 100 µM. In addition, the “maximal reduction of HBV DNA” value in data set [6] is given as 0.6 logs. Further, the IC50 at 3 days in data set [4] was greater than 100 µM. In data set [5], the “Average ΔCt ± SD β-actin DNA” value is 0.11 ± 0.23.

As for `Nc1ccn([C@@H]2C=C(F)[C@H](CO)O2)c(=O)n1` [Compound 10, 1-(2,3-Dideoxy-3-fluoro-β-L-glycero-pent-2-eno-furanosyl)cytosine], the IC50 at 5 days in data set [1] is greater than 100 µM. In data set [4], this compound gave an IC50 at 3 days greater than 100 µM.

For `Nc1ccn([C@@H]2C=C(F)[C@H](CO)O2)c(=O)n1` [Compound 23, 1-(2,3-Didcoxy-3-fluoro-β-L-glycero-pent-2-eno-furanosyl)cytosine], in data set [7], the 50% inhibitory concentration (IC50) was 87 µM.

In the case of `Nc1ccn([C@@H]2S[C@H](CO)C=C2F)c(=O)n1` [Compound D-17, (−)-1-[(1S,4R)-2,3-dideoxy-2,3-didehydro-2-fluoro4-thio-β-D-ribofuranosyl]-cytosine], the half-inhibitory concentration (IC50) in data set [7], in data set [8] and in data set [9] was greater than 100 µM in each case.

For the compound `Nc1nc(=O)n([C@@H]2S[C@H](CO)C=C2F)cc1F` [Compound D-18, (−)-1-[(1S,4R)-2,3-dideoxy-2,3-didehydro-2-fluoro-4-thio-β-D-ribofuranosyl]-5-fluorocytosine], the half-inhibitory concentration (IC50) in [7], in [8] and in data set [9] was greater than 100 µM each time.

For `Nc1ccn([C@H]2S[C@@H](CO)C=C2F)c(=O)n1` [Compound L-17, (+)-1-[(1S,4R)-2,3-dideoxy-2,3-didehydro-2-fluoro-4-thio-β-L-ribofuranosyl]-cytosine], the IC50 in data set [7], in data set [8] and in data set [9] was greater than 100 µM throughout. Further, the concentration giving a half-maximal response (EC50) in data set [10] was 0.12 µM.

With `Nc1nc(=O)n([C@H]2S[C@@H](CO)C=C2F)cc1F` [Compound L-18, (+)-1-[(1S,4R)-2,3-dideoxy-2,3-didehydro-2-fluoro-4-thio-β-L-ribofuranosyl]-5-fluoro-cytosine], the IC50 in data set [7], in data set [8] and in data set [9] was greater than 100 µM each time.

Source of the values: patent US6949522B2, “β-2′- or 3′-halonucleosides” (Pharmasset, Inc., priority 2001, dated 2005).
